The record followed here is patent publication US20080219977A1, “Combinations Comprising Gemcitabine and Tyrosine Kinase Inhibitors for the Treatment of Pancreatic Cancer” (priority 2005, published 2008).

The target in test [1] is T1, PDGFRβ (Mus musculus, UniProt P05622).
T1 construct: Frozen sections of pancreatic tumors are mounted on slides and fixed; from tissue; host or cells: tumour-associated endothelial cells in L3.6pl tumours of nude mice
Briefly: Double immunofluorescence CD31/pPDGFRβ on tumor-associated endothelial cells. The class given is in vivo, nude mice. The note with it: double immunofluorescence with CD31.

The subject of test [2] is L3.6pl human pancreatic cancer cells. Briefly: Therapy of established L3.6pl human pancreatic carcinoma tumors growing in the pancreas of athymic nude mice (tumor weight). It counts as in vivo. An excerpt:
Animals and Orthotopic Implantation of Tumor Cells. Male athymic nude mice (NCI-nu) are purchased from the Animal Production Area of the National Cancer Institute Frederick Cancer Research and Development Center (Frederick, Md.). The mice are housed and maintained under specific pathogen-free conditions. The mice are used when they are 8 to 12 weeks old. To produce pancreatic tumors, L3.6pl cells are harvested from subconfluent cultures by a brief exposure to 0.25% trypsin and 0.02% EDTA. Trypsinization is stopped with medium containing 10% FBS, and the cells are washed once in serum-free medium and resuspended in Hanks' balanced salt solution (HBSS). Only suspensions consisting of single cells with greater than 90% viability are used for injection into the pancreas of nude mice as described previously (Hwang et al. in Clin Cancer Res 2003; 9:6534-44). Treatment of Established Human Pancreatic Carcinoma Tumors Growing in the Pancreas of Athymic Nude Mice. Twenty-one days after the intra-pancreatic injection of 0.5×10^6 viable L3.6pl cells in 50 μl HBSS, the pancreatic tumors reach the size of 5-6-mm. […] All mice are treated for 4 weeks and killed on day 49 of the experiment. Necropsy Procedures and Histological Studies. […] Tumors growing in the pancreas are excised and weighed. For immunohistochemical staining procedures, one part of the tumor tissue is fixed in formalin and embedded in paraffin and the other is embedded in OCT compound (Miles, Inc., Elkhart, Ind.), rapidly frozen in liquid nitrogen, and stored at −70° C. Statistical Analysis. Body weight, tumor weight, PCNA-positive cells, mean vessel density (CD31/PECAM-1), and TUNEL-positive cells are compared using the Mann-Whitney U test. Survival analysis is computed by the Kaplan-Meier method and compared by the Log rank test.

For test [3], the system named is tumor-associated endothelial cells. Nature of the test: CD31/TUNEL fluorescent double labeling, apoptosis of tumor-associated endothelial cells. The class given is in vivo, nude mice. To be noted: Median ± S.D.; ratio of apoptotic endothelial cells to total endothelial cells. On the procedure:
Double Immunofluorescence Staining for CD31/PECAM-1 and EGFR, pEGFR, VEGFR, pVEGFR, PDGFRβ, pPDGFRβ, Pericytes (desmin-positive cells), and TUNEL. Frozen sections of pancreatic tumors are mounted on slides and fixed. Immunofluorescence for CD31 is performed using Alexa594 conjugated secondary antibody, and samples are again blocked briefly in a blocking solution (5% normal horse serum and 1% normal goat serum in PBS) as described above and incubated with antibody against human EGFR, pEGFR, VEGFR, pVEGFR, PDGFRβ, pPDGFRβ, or desmin at 4° C. overnight. After washes and blocking with blocking solution, samples are incubated with Alexa488 conjugated secondary antibody. Endothelial cells are identified by red fluorescence, and EGF-R, pEGFR, VEGFR, pVEGFR, PDGFRβ, pPDGFRβ and desmin positive cells (pericytes) are identified by green fluorescence. The presence of growth factor receptors and phosphorylated receptors on endothelial cells are detected by colocalization of red and green fluorescence, which appeared yellow. TUNEL-positive apoptotic cells are detected by localized green fluorescence within cell nuclei, and endothelial cells are identified by red fluorescence. Apoptotic endothelial cells are identified by yellow fluorescence within the nuclei.

Test [4] deals with PDGFRβ. Nature of the test: IHC analysis of phosphorylated PDGFRβ in L3.6pl pancreatic tumors. To be noted: IHC of pancreatic tumors from treated mice. It counts as in vivo, human. An excerpt:
Immunohistochemical (IHC) Analysis to Detect EGF, VEGF, PDGF-BB, EGFR, VEGFR, PDGFRβ, pEGFR, pVEGFR, pPDGF-R in Pancreatic Tumors. Paraffin-embedded pancreatic tumors of mice from all treatment groups are immunostained to evaluate the expression of EGF, VEGF, PDGF-BB, EGFR, VEGFR, PDGFRβ, phosphorylated (p)EGFR, pVEGFR, and pPDGFRβ. The sections are deparaffinized in xylene, dehydrated with alcohol and rehydrated in PBS. Endogenous peroxidase is blocked with 3% hydrogen peroxide in PBS. Samples are exposed to protein block (5% normal horse serum, 1% normal goat serum in PBS) and incubated overnight at 4° C. with each primary antibody at the appropriate dilution. […] Slides are counterstained with Gill's #3 hematoxylin. Sections stained for immunoperoxidase or hematoxylin and eosin are examined in a microscope equipped with a three-chip-charged coupled device (CCD) color video camera. Digital images are captured using Optimas Image Analysis software (Media Cybernetics, Md.).

For test [5], the system named is EGF, VEGF, PDGF-BB, EGFR, VEGFR, and PDGFR. Briefly: IHC expression level of growth factors and receptors in L3.6pl pancreatic tumors. The note with it: IHC of pancreatic tumors from treated mice. It counts as in vivo, human. An excerpt: Immunohistochemical (IHC) Analysis to Detect EGF, VEGF, PDGF-BB, EGFR, VEGFR, PDGFRβ, pEGFR, pVEGFR, pPDGF-R in Pancreatic Tumors. Paraffin-embedded pancreatic tumors of mice from all treatment groups are immunostained to evaluate the expression of EGF, VEGF, PDGF-BB, EGFR, VEGFR, PDGFRβ, phosphorylated (p)EGFR, pVEGFR, and pPDGFRβ. The sections are deparaffinized in xylene, dehydrated with alcohol and rehydrated in PBS. Endogenous peroxidase is blocked with 3% hydrogen peroxide in PBS. Samples are exposed to protein block (5% normal horse serum, 1% normal goat serum in PBS) and incubated overnight at 4° C. with each primary antibody at the appropriate dilution. After 1 h incubation at room temperature with peroxidase-conjugated secondary antibody, positive reaction is detected by exposure to stable 3,3′-diaminobenzidine (DAB) (Phoenix Biotechnologies, Huntsville, Ala.). Slides are counterstained with Gill's #3 hematoxylin. Sections stained for immunoperoxidase or hematoxylin and eosin are examined in a microscope equipped with a three-chip-charged coupled device (CCD) color video camera. Digital images are captured using Optimas Image Analysis software (Media Cybernetics, Md.).

For test [6], the system named is L3.6pl human pancreatic cancer cells. Briefly: Apoptosis (TUNEL) in L3.6pl tumors. The class given is in vivo. To be noted: Median ± S.D.; TUNEL-positive cells in 10 random 0.159-mm^2 fields at ×100. As to the method:
Analysis of apoptotic cells is performed by using a commercially available TUNEL kit (Promega) with the following modifications: Samples are fixed and incubated with an equilibration buffer followed by a reaction buffer (containing nucleotide mix and terminal deoxynucleotidyl transferase enzyme). Immunofluorescence microscopy is performed in a Zeiss Axioplan microscope (Carl Zeiss, Inc., Thornwood, N.Y.) equipped with an HBO 100 mercury lamp, narrow bandpass filters to individually select for green, red, and blue fluorescence (Chroma Technology Corp., Brattleboro, Vt.). Images are captured using a cooled CCD Hamamatsu Orca camera (Hamamatsu Corp., Bridgewater, N.J.) and Image Pro Analysis software (Media Cybernetics, Silver Spring, Md.). Photomontages are prepared using Adobe Photoshop software (Adobe Systems, Inc., San Jose, Calif.). […] Statistical Analysis. Body weight, tumor weight, PCNA-positive cells, mean vessel density (CD31/PECAM-1), and TUNEL-positive cells are compared using the Mann-Whitney U test. Survival analysis is computed by the Kaplan-Meier method and compared by the Log rank test.

Test [7] deals with tumor-associated endothelial cells. Nature of the test: Pericyte (desmin) coverage on tumor-associated endothelial cells. The class given is in vivo, nude mice. To be noted: desmin-positive cells in contact with CD31-positive cells.
Method: Double Immunofluorescence Staining for CD31/PECAM-1 and EGFR, pEGFR, VEGFR, pVEGFR, PDGFRβ, pPDGFRβ, Pericytes (desmin-positive cells), and TUNEL. Frozen sections of pancreatic tumors are mounted on slides and fixed. Immunofluorescence for CD31 is performed using Alexa594 conjugated secondary antibody, and samples are again blocked briefly in a blocking solution (5% normal horse serum and 1% normal goat serum in PBS) as described above and incubated with antibody against human EGFR, pEGFR, VEGFR, pVEGFR, PDGFRβ, pPDGFRβ, or desmin at 4° C. overnight. After washes and blocking with blocking solution, samples are incubated with Alexa488 conjugated secondary antibody. Endothelial cells are identified by red fluorescence, and EGF-R, pEGFR, VEGFR, pVEGFR, PDGFRβ, pPDGFRβ and desmin positive cells (pericytes) are identified by green fluorescence. The presence of growth factor receptors and phosphorylated receptors on endothelial cells are detected by colocalization of red and green fluorescence, which appeared yellow. The coverage of pericytes on endothelial cells is determined by counting CD31 positive cells in direct contact with desmin-positive cells and CD31-positive cells without direct association with desmin-positive cells in five randomly selected microscopic fields.

T1 sequence (P05622 32-1098): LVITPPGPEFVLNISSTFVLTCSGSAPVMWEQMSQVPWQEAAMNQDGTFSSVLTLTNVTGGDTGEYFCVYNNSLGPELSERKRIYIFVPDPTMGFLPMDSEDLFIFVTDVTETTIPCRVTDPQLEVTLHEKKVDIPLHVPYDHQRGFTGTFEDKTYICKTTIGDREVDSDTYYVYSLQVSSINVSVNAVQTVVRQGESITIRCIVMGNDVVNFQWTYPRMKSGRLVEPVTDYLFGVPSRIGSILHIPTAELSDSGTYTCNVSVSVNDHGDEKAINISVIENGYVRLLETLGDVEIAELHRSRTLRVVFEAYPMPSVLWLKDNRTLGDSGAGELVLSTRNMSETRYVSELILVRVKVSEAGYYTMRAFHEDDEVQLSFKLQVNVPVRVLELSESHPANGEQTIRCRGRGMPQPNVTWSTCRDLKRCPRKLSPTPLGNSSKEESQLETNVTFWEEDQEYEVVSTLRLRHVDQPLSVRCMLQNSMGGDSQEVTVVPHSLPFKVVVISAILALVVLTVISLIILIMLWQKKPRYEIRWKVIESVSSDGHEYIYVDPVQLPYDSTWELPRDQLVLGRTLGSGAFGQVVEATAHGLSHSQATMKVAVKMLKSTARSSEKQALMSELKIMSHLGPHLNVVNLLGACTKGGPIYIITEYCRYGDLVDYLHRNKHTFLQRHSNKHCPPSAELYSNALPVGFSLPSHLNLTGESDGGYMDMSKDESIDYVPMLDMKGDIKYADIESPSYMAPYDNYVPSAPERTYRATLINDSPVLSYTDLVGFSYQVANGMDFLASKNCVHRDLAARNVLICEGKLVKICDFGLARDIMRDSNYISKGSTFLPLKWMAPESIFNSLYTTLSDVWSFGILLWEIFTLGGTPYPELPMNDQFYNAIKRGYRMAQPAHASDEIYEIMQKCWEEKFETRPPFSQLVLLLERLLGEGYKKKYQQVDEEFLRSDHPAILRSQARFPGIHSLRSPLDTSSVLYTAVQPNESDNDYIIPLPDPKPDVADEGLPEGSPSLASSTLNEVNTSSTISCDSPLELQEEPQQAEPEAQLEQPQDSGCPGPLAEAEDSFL

For the compound `Cc1ccc(NC(=O)c2ccc(CN3CCN(C)CC3)cc2)cc1Nc1nccc(-c2cccnc2)n1` [STI571, N-{5-[4-(4-methyl-piperazino-methyl)-benzoylamido]-2-methylphenyl}-4-(3-pyridyl)-2-pyrimidine-amine], the “phosphorylation of PDGFRβ on tumor-associated endothelial cells” value at PDGFRβ [1] is “decreased”. Also, the “effect on tumor growth (in words)” value in test [2] (L3.6pl implanted in the pancreas of nude mice, each drug 50 mg/kg) was “does not inhibit tumor growth”. In addition, the “Tumor weight (g) Median” value in test [2] (pancreatic tumor, AEE788 50 mg/kg oral 3x/week, STI571 50 mg/kg oral daily, gemcitabine 50 mg/kg i.p. twice weekly, 4 weeks, killed day 49, n=10) worked out at 0.96 g. In addition, the “Endothelial cells TUNEL+ (%)” value in test [3] turned out to be 0 ± 0%. Besides, in the test on PDGFRβ [4], the “phosphorylation of PDGFRβ in tumors” value was “inhibited”. For the same compound, the “expression level of EGF, VEGF, PDGF-BB, EGFR, VEGFR, and PDGFR by the tumor cells or in the stroma cells” value in test [5] is recorded as “do not alter the expression level”. In addition, in test [6], the “Tumor cells TUNEL (number of apoptotic tumor cells)” value is on record as 6 ± 2. For the same compound, the “pericyte coverage on tumor-associated endothelial cells” value in test [7] is reported as “decreases pericyte coverage”.
